The source of these data is US20240270695A1, “COMPOUNDS, COMPOSITIONS AND METHODS OF TREATING DISORDERS” (Chengdu Anticancer Bioscience LTD, priority 2021, published 2024).

Assay [1] relates to RPE-Neo or RPE-MYC or RPE-MYC expressing an EGFP-Histone 2B fusion protein. The assay is described as follows: MTT assays of cellular proliferation. It is filed as cell-based. The conditions noted are these: Homo sapiens, min. effective conc., read-out: Proliferative arrest (<50%).
The test system is the same in assay [2]. The assay is described as follows: Phenotypic screening assay (arrest in mitosis, change in DNA content, cell death; GE IN-Cell Analyzer 2000). It is filed as cell-based. As to conditions: Homo sapiens, compounds 20 nM to 20 μM, 24, 48 or 72 hours.
Setting [3] is: read-out: Min. Effective conc. for Polyploidy (≥10%).
The mark [4] stands for this setting: min. effective conc., read-out: Cell Death (>30%).
Where [5] appears, read: min. effective conc., read-out: Mitotic Arrest (≥10%).

Each structure is given as a SMILES string.

For `CNC(=O)C1=C(O)c2ccccc2N(Cc2cc(F)ccc2OC)C(=O)C1` [Example 114, 1-(5-fluoro-2-methoxybenzyl)-5-hydroxy-N-methyl-2-oxo-2,3-dihydro-1H-benzo[b]azepine-4-carboxamide], the minimal effective concentration in assay [1], in assay [2] (setting [3]), in assay [2] (setting [4]) and in assay [2] (setting [5]) was 1 to 10 µM in each case.

With `CNC(=O)C1CC(=O)N(Cc2ccc(-c3ccccc3)cc2)c2ccccc2C1=O` (centres unmarked) [Example 89, 1-([1,1′-biphenyl]-4-ylmethyl)-5-hydroxy-N-methyl-2-oxo-2,3-dihydro-1H-benzo[b]azepine-4-carboxamide], the minimal effective concentration in assay [1], in assay [2] (setting [3]), in assay [2] (setting [4]) and in assay [2] (setting [5]) was 30 to 1000 µM throughout.

For `CNC(=O)C1=C(O)c2ccccc2N(Cc2ccc(OC)cc2)C(=O)C1` [Example 91, 5-hydroxy-1-(4-methoxybenzyl)-N-methyl-2-oxo-2,3-dihydro-1H-benzo[b]azepine-4-carboxamide], the minimal effective concentration lay within 10 to 30 µM in assay [1], 10 to 30 µM in assay [2] (setting [3]), 10 to 30 µM in assay [2] (setting [4]) and 1 to 10 µM in assay [2] (setting [5]).

With `CNC(=O)C1=C(O)c2ccc(-c3cnn(C)c3)cc2N(Cc2ccc(C)c(F)c2)C(=O)C1` [Example 138, 1-(3-fluoro-4-methylbenzyl)-5-hydroxy-N-methyl-8-(1-methyl-1H-pyrazol-4-yl)-2-oxo-2,3-dihydro-1H-benzo[b]azepine-4-carboxamide], the minimal effective concentration in assay [1], in assay [2] (setting [3]), in assay [2] (setting [4]) and in assay [2] (setting [5]) was 1 to 10 µM throughout.

Regarding `CNC(=O)C1=C(O)c2ccccc2N(Cc2ccc(F)c(C#N)c2)C(=O)C1` [Example 117, 1-(3-cyano-4-fluorobenzyl)-5-hydroxy-N-methyl-2-oxo-2,3-dihydro-1H-benzo[b]azepine-4-carboxamide], the minimal effective concentration in assay [1], in assay [2] (setting [3]), in assay [2] (setting [4]) and in assay [2] (setting [5]) was 30 to 1000 µM in each case.

For the molecule `CNC(=O)C1=C(O)c2ccccc2N(Cc2ccccc2F)C(=O)C1` [Example 78, 1-(2-fluorobenzyl)-5-hydroxy-N-methyl-2-oxo-2,3-dihydro-1H-benzo[b]azepine-4-carboxamide], the minimal effective concentration in assay [1], in assay [2] (setting [3]), in assay [2] (setting [4]) and in assay [2] (setting [5]) was 10 to 30 µM each time.

`CNC(=O)C1=C(O)c2ccccc2N(Cc2ccc(C(C)C)cc2)C(=O)C1` [Example 87, 5-hydroxy-1-(4-isopropylbenzyl)-N-methyl-2-oxo-2,3-dihydro-1H-benzo[b]azepine-4-carboxamide]: the minimal effective concentration in assay [1], in assay [2] (setting [3]), in assay [2] (setting [4]) and in assay [2] (setting [5]) was 30 to 1000 µM throughout.

As for `CNC(=O)C1=C(O)c2ccc(OCc3ccsc3)cc2N(Cc2ccc(C)c(F)c2)C(=O)C1` [Example 134, 1-(3-fluoro-4-methylbenzyl)-5-hydroxy-N-methyl-2-oxo-8-(thiophen-3-ylmethoxy)-2,3-dihydro-1H-benzo[b]azepine-4-carboxamide], the minimal effective concentration in assay [1], in assay [2] (setting [3]), in assay [2] (setting [4]) and in assay [2] (setting [5]) was 1 to 10 µM each time.

Consider `CNC(=O)C1CC(=O)N(Cc2ccc(C)cc2C)c2ccccc2C1=O` (centres unmarked) [Example 101, 1-(2,4-dimethylbenzyl)-5-hydroxy-N-methyl-2-oxo-2,3-dihydro-1H-benzo[b]azepine-4-carboxamide], for which the minimal effective concentration in assay [1], in assay [2] (setting [3]), in assay [2] (setting [4]) and in assay [2] (setting [5]) was 1 to 10 µM each time.

Turning to `CCCCc1ccc(CN2C(=O)CC(C(=O)NC)=C(O)c3ccccc32)cc1` [Example 88], the minimal effective concentration in assay [1], in assay [2] (setting [3]), in assay [2] (setting [4]) and in assay [2] (setting [5]) was 30 to 1000 µM in each case.

As to `CNC(=O)C1=C(O)c2ccccc2N(Cc2ccc(F)c(Cl)c2)C(=O)C1` [Example 116, 1-(3-chloro-4-fluorobenzyl)-5-hydroxy-N-methyl-2-oxo-2,3-dihydro-1H-benzo[b]azepine-4-carboxamide], the minimal effective concentration in assay [1], in assay [2] (setting [3]), in assay [2] (setting [4]) and in assay [2] (setting [5]) was 30 to 1000 µM in each case.
